Literature values, collected in patent US8791095B2, “Steroidal CYP17 inhibitors/antiandrogens” (Tokai Pharmaceuticals, Inc., priority 2009, dated 2014).

What was measured:
human CYP17 enzyme = molecular target: T1, human CYP17 enzyme (Homo sapiens, UniProt P05093); details: read-out: IC50, inhibition of human CYP17 enzyme
T1 sequence (P05093 1-508): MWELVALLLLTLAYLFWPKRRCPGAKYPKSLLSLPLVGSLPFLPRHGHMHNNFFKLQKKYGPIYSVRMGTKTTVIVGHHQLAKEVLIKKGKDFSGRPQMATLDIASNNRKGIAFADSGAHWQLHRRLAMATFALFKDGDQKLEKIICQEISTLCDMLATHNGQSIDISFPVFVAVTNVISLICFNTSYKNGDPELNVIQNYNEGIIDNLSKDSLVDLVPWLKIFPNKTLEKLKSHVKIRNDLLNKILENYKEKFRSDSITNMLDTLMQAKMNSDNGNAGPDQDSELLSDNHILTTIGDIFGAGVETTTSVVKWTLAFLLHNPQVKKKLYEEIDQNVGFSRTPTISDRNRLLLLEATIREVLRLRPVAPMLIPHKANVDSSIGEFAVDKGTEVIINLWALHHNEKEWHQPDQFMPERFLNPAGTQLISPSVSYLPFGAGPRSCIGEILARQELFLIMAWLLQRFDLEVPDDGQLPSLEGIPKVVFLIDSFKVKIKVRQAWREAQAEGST

[1] = tested on: LAPC4 human prostate tumor xenograft; details: for inhibition of growth of LAPC4 xenograft (in words): in vivo

IC50 (human CYP17 enzyme) [nM]	conversion into a metabolite (metabolite tentatively identified as 17-(1H-benzimidazol-1-yl)androsta-3-one)	SMILES	peak plasma level (mice, s.c. 50 mg/kg) [ng/mL]	detectability in plasma at 8 hours (mice, s.c. 50 mg/kg)	efficacy compared with castration ([1]; 50 mg/kg, twice daily)	reduction in the mean final tumor volume compared with controls ([1]; 50 mg/kg, twice daily, P=0.00065) [%]	inhibition of growth of LAPC4 xenograft (in words) [1]	terminal half-life in plasma (mice, s.c. 50 mg/kg) [min]
50	rapidly converted into a metabolite	C[C@]12CC[C@H](O)CC1=CC[C@@H]1[C@@H]2CC[C@]2(C)C(n3cnc4ccccc43)=CC[C@@H]12 [Compound 1, 3β-hydroxy-17-(1H-benzimidazole-1-yl)androsta-5,16-diene]	16.82	neither was detectable	significantly more effective than castration	93.8	very effective	–
3 to 6	–	C[C@]12CC[C@H](O)CC1=CC[C@@H]1[C@@H]2CC[C@]2(C)C(c3cccnc3)=CC[C@@H]12 [abiraterone, 3β-hydroxy-17-(pyrid-3-yl)androsta-5,16-diene]	–	–	–	–	–	–
–	–	C[C@]12CCC(=O)C=C1CCC1C2CC[C@]2(C)C(n3cnc4ccccc43)=CCC12 (stereo partly shown) [Compound 2, 17-(1H-benzimidazole-1-yl)androsta-4,16-diene-3-one]	5.15	neither was detectable	–	–	ineffective	39.93

SMILES	IC50 (human CYP17 enzyme) [nM]	conversion into a metabolite (metabolite tentatively identified as 17-(1H-benzimidazol-1-yl)androsta-3-one)	peak plasma level (mice, s.c. 50 mg/kg) [ng/mL]	detectability in plasma at 8 hours (mice, s.c. 50 mg/kg)	efficacy compared with castration ([1]; 50 mg/kg, twice daily)	reduction in the mean final tumor volume compared with controls ([1]; 50 mg/kg, twice daily, P=0.00065) [%]	inhibition of growth of LAPC4 xenograft (in words) [1]	terminal half-life in plasma (mice, s.c. 50 mg/kg) [min]
CC12CCC(O)CC1=CCC1C2CCC2(C)C(c3cncnc3)=CCC12 (stereo not drawn) [Compound 3, 3β-hydroxy-17-(5′-pyrimidyl)androsta-5,16-diene]	500	–	–	–	–	–	–	–
